Measured values as given in patent publication US20230234943A1, “TREX1 INHIBITORS AND USES THEREOF” (Tempest Therapeutics, Inc., priority 2020, published 2023).

Each compound was assayed against T1, Human TREX1 enzyme (amino acids 1-242) (Homo sapiens, UniProt Q9NSU2) (assay: Human TREX1 enzymatic assay with dsDNA native oligonucleotide (Picogreen fluorescence)). Conditions: 2 mM dithiothreitol in assay buffer; 50 nM dsDNA oligonucleotide; 30 min preincubation at 25° C.; read-out: TREX1/Human + DTT IC50 AVG.
T1 construct: Human TREX1 enzyme (amino acids 1-242)
T1 sequence (Q9NSU2 1-242): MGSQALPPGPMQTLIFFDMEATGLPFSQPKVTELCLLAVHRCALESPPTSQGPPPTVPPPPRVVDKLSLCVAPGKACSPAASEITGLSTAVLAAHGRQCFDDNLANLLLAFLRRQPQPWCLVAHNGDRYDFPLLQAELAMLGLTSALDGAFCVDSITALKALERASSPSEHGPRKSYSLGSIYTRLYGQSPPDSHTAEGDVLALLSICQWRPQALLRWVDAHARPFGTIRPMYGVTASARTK
Format: biochemical
Method: Example A. Human TREX1 Enzymatic Assay with dsDNA Native Oligonucleotide
Human TREX1 enzyme (amino acids 1-242) was diluted in assay buffer (20 mM Tris pH 7.7, 5 mM MgCl2, 0.01% human serum albumin, 0.01% Brij™-35, 2 mM dithiothreitol) to a final concentration of 0.8 nM to 0.16 nM and added to a 96-well low-binding polypropylene plate. Test compounds were diluted in DMSO to 50× concentration (final DMSO concentration in reaction mixture of 2%) and added to the wells with a concentration ranging from 300 μM to 13 nM or 30 μM to 1.5 nM. The reaction mixtures were incubated for 30 minutes at 25° C. and a solution of annealed dsDNA oligonucleotide (5′-[…]-3′ and Comp: 5′-[…]-3′) was added to a final concentration of 50 nM. The reaction mixtures were incubated at 25° C. for 5-15 minutes and subsequently quenched by transferring part of the assay reaction to a solution of 100 mM ethylenediaminetetraacetic acid and 1:100 Picogreen™ (final concentration of […]) in a black plate with an opaque bottom. The fluorescence ([…]) was measured using a Molecular Devices SpectraMax plate reader. Wells containing oligonucleotide but no TREX1 enzyme were used as negative controls. Wells containing oligonucleotide, TREX1 enzyme, and DMSO were used as positive controls.

`COc1cc(-c2nc3ccccc3n2C2CCC2)c(F)c(O)c1O` [Example 327, 4-(1-cyclobutyl-1H-benzo[d]imidazol-2-yl)-3-fluoro-6-methoxybenzene-1,2-diol] and `COc1cc(-c2nc3ccccc3n2C2COC2)c(F)c(O)c1O` [Example 167, 3-fluoro-6-methoxy-4-(1-(oxetan-3-yl)-1H-benzo[d]imidazol-2-yl)benzene-1,2-diol] fall in the same range of IC50: 1 to 10 µM for the first, 1 to 10 µM for the second.

First: COc1cc(-c2nc3cc(N4CCN(C(=O)c5ccc(C(C)(C)C)cc5)CC4)ccc3[nH]2)cc(O)c1O [Example 126, (4-(tert-butyl)phenyl)(4-(2-(3,4-dihydroxy-5-methoxyphenyl)-1H-benzo[d]imidazol-5-yl)piperazin-1-yl)methanone]
Second: COc1cc(-c2nc3cc(N4CC5(CN(CC(F)(F)F)C5)C4)ccc3[nH]2)cc(O)c1O [Example 122, 3-methoxy-5-(5-(6-(2,2,2-trifluoroethyl)-2,6-diazaspiro[3.3]heptan-2-yl)-1H-benzo[d]imidazol-2-yl)benzene-1,2-diol]
The IC50 of the first is higher: > 100 µM for the first, 10 to 100 µM for the second.

`COc1c(C)c(-c2nc3ccccc3n2C2(C)COC2)cc(O)c1O` [Example 201, 3-methoxy-4-methyl-5-[1-(3-methyloxetan-3-yl)-1H-1,3-benzodiazol-2-yl]benzene-1,2-diol] and `COc1cc(-c2nc3ccccc3n2[C@H]2COC[C@@H]2O)c(C)c(O)c1O` [Example 170, 4-(1-((3S,4R)-4-hydroxytetrahydrofuran-3-yl)-1H-benzo[d]imidazol-2-yl)-6-methoxy-3-methylbenzene-1,2-diol] fall in the same range of IC50: 10 to 100 µM for the first, 10 to 100 µM for the second.

First: COc1cc(-c2nc3ccccc3n2C(C)(C)C)c(F)c(O)c1O [Example 330, 4-(1-(tert-butyl)-1H-benzo[d]imidazol-2-yl)-3-fluoro-6-methoxybenzene-1,2-diol]
Second: COc1cc(-c2nc3ccccc3n2C2CN(C(C)=O)C2)c(C)c(O)c1O [Example 321, 1-(3-(2-(3,4-dihydroxy-5-methoxy-2-methylphenyl)-1H-benzo[d]imidazol-1-yl)azetidin-1-yl)ethan-1-one]
The IC50 of the first is lower: 0.1 to 1 µM for the first, > 100 µM for the second. The first is the more potent here.

`COc1cc(-c2nc3cc(N4CCC4)ccc3[nH]2)c(F)c(O)c1O` [Example 157, 4-(5-(azetidin-1-yl)-1H-benzo[d]imidazol-2-yl)-3-fluoro-6-methoxybenzene-1,2-diol] and `O=C(O)c1cc(F)c(-c2nc3cc(N4CCC4)ccc3[nH]2)cc1O` [Example 150, 4-(5-(azetidin-1-yl)-1H-benzo[d]imidazol-2-yl)-5-fluoro-2-hydroxybenzoic acid] fall in the same range of IC50: 1 to 10 µM for the first, 1 to 10 µM for the second.

Going from `COc1cc(-c2nc3cc(-c4ccccc4)ccc3[nH]2)cc(O)c1O` [Example 69, 3-methoxy-5-(5-phenyl-1H-benzo[d]imidazol-2-yl)benzene-1,2-diol] to `COc1cc(-c2nc3ccc(C(=O)NC(C)C)cc3n2C2(C)COC2)c(F)c(O)c1O` [Example 252, 2-(2-fluoro-3,4-dihydroxy-5-methoxyphenyl)-N-isopropyl-1-(3-methyloxetan-3-yl)-1H-benzo[d]imidazole-6-carboxamide], the IC50 falls from > 100 µM to ≤ 0.1 µM. The second is the more potent here.

First: COc1cc(-c2nc3cc(NC(=O)c4cnoc4)ccc3n2C2(C)COC2)c(F)c(O)c1O [Example 206, N-(2-(2-fluoro-3,4-dihydroxy-5-methoxyphenyl)-1-(3-methyloxetan-3-yl)-1H-benzo[d]imidazol-5-yl)isoxazole-4-carboxamide]
Second: COc1cc(-c2nc3ccc(C(=O)N(C)C)cc3n2C2(C)COC2)c(F)c(O)c1O [Example 245, 2-(2-fluoro-3,4-dihydroxy-5-methoxyphenyl)-N,N-dimethyl-1-(3-methyloxetan-3-yl)-1H-benzo[d]imidazole-6-carboxamide]
The IC50 of the first is lower: 0.1 to 1 µM for the first, 1 to 10 µM for the second. The first is the more potent here.

Work on `COc1cc(-c2nc3cc(N4CCCC4=O)ccc3n2C2COC2)c(F)c(O)c1O` [Example 191, 1-(2-(2-fluoro-3,4-dihydroxy-5-methoxyphenyl)-1-(oxetan-3-yl)-1H-benzo[d]imidazol-5-yl)pyrrolidin-2-one] yielded an IC50 of 10 to 100 µM.
